Test results as given in patent US12492188B2, “1H-benzo[D]imidazole derivatives as TLR9 inhibitors for the treatment of fibrosis” (BRISTOL-MYERS SQUIBB COMPANY, priority 2020, dated 2025).
Read-outs that look alike come from different tables or passages of the source.

How the values were obtained:
Type in all cases: cell-based
human TLR8 = target: T1, human TLR8 (Homo sapiens, UniProt Q9NR97); assay: TLR8 inhibition reporter assay (HEK-Blue cells, secreted embryonic alkaline phosphatase reporter); details: HEK-Blue cells overexpressing human TLR8, stimulated with R848 15.9 μM; read-out: TLR 8 IC50
T1 construct: host or cells: HEK-Blue cells (HEK293-derived reporter line)
T1 sequence (Q9NR97 27-1041): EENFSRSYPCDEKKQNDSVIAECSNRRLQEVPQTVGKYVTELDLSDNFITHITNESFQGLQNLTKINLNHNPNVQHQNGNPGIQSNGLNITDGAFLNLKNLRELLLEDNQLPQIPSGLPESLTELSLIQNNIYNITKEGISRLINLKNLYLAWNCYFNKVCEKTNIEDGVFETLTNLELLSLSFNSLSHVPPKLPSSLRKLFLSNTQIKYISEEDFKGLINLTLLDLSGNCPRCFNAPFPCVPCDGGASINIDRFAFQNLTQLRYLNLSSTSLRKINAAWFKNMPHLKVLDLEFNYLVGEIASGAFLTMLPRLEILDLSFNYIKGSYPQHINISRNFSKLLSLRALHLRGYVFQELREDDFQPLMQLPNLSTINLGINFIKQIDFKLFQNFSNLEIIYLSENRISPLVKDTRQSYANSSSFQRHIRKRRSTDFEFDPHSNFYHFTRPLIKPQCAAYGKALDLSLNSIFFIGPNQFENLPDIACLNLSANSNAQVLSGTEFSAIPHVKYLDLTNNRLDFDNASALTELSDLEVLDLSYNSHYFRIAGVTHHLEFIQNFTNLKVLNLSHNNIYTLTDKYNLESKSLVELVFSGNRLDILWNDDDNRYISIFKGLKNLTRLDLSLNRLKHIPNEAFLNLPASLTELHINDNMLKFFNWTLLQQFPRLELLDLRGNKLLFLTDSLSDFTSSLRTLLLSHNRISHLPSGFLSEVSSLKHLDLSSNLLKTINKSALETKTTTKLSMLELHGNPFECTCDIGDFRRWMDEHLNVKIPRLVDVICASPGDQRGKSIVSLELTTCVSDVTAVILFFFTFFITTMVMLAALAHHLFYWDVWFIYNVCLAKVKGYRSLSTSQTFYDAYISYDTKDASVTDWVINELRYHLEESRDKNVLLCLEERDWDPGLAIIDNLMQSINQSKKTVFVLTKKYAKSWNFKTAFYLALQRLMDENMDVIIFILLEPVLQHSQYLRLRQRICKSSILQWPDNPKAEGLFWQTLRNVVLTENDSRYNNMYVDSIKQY
In short: (§1)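 HEK-Blue cells expressing human TLR7, TLR8 or TLR9 with an NF-κB/AP-1-driven SEAP reporter were pretreated with compound (0.05 nM–50 μM final) for 30 min at room temperature. Agonists were gardiquimod 7.5 μM for TLR7, R848 15.9 μM for TLR8 and ODN2006 5 nM for TLR9. SEAP was read after 22 h at 37 °C, and inhibition was calculated relative to agonist-plus-DMSO and known-inhibitor controls.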

human TLR9 = target: T2, human TLR9 (Homo sapiens, UniProt Q9NR96); assay: TLR9 inhibition reporter assay (HEK-Blue cells, secreted embryonic alkaline phosphatase reporter)
T2 construct: host or cells: HEK-Blue cells (HEK293-derived reporter line)
T2 sequence (Q9NR96 26-1032): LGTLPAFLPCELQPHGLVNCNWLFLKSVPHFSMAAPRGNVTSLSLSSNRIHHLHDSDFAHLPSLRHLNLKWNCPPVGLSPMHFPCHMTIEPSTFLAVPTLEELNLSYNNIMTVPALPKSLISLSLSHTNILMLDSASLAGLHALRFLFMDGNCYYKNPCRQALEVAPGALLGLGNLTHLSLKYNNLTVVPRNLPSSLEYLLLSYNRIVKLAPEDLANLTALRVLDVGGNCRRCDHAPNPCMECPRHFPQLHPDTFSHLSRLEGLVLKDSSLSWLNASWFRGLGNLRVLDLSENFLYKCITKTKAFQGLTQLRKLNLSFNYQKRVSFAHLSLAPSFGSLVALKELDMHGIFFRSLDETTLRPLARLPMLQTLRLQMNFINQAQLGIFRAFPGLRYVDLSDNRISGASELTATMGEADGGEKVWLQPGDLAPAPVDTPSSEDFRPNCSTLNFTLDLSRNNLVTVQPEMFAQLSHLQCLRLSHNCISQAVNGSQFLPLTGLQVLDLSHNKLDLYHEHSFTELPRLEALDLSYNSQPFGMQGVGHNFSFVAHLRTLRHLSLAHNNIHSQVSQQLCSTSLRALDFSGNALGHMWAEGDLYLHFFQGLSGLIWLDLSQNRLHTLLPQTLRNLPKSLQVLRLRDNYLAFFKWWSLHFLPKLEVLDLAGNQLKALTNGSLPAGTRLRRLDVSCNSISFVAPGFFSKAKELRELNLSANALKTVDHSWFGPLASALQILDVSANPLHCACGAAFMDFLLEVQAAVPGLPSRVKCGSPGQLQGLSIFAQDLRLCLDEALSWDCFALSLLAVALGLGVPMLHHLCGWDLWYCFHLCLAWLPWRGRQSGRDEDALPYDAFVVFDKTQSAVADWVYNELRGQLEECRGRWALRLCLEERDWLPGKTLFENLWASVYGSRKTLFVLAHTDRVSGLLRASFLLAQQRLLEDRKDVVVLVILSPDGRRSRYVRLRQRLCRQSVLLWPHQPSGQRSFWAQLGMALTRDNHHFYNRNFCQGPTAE
In short: as §1

human TLR7 = target: T3, human TLR7 (Homo sapiens, UniProt Q9NYK1); assay: TLR7 inhibition reporter assay (HEK-Blue cells, secreted embryonic alkaline phosphatase reporter); details: HEK-Blue cells overexpressing human TLR7, stimulated with gardiquimod 7.5 μM; read-out: TLR 7 IC50
T3 construct: host or cells: HEK-Blue cells (HEK293-derived reporter line)
T3 sequence (Q9NYK1 27-1049): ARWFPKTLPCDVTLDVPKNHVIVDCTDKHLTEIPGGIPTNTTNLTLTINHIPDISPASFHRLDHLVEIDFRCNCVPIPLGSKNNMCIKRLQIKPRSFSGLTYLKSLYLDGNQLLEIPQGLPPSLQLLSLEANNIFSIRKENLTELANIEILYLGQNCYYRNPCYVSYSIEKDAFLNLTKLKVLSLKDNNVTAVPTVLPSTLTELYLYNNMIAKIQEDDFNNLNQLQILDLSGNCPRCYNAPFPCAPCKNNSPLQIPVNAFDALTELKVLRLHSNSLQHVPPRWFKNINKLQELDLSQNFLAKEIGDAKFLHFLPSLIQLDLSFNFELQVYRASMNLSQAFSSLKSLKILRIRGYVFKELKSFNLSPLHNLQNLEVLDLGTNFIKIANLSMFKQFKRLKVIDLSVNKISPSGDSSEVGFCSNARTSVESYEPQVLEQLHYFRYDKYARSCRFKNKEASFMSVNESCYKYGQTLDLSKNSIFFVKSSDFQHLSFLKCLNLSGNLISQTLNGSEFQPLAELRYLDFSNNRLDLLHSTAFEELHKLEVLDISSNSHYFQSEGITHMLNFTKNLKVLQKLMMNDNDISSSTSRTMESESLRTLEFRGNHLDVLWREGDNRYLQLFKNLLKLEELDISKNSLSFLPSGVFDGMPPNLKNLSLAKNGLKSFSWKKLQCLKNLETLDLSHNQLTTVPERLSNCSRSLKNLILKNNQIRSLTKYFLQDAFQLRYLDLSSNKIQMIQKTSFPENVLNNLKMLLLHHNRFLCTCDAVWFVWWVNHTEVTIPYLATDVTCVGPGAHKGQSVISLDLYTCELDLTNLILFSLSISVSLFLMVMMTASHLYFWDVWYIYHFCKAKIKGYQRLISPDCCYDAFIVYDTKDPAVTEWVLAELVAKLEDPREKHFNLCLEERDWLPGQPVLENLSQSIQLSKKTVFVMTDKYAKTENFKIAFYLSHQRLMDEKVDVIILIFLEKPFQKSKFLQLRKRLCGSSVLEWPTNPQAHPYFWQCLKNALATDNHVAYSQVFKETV
In short: as §1

[1] = HEK-Blue cells overexpressing human TLR9, stimulated with ODN2006 5 nM, read-out: TLR 9 IC50
[2] = HEK-Blue cells overexpressing human TLR9, stimulated with ODN2006 5 nM, 22 hour incubation, reporter readout

| IC50 (human TLR8) [nM] | IC50 (human TLR9) [nM] | IC50 (human TLR9; [1]) [nM] | IC50 (human TLR7) [nM] | IC50 (human TLR9; [2]) [nM] | Compound |
| --- | --- | --- | --- | --- | --- |
| > 50000 | 120 | 124 | 7000 | – | COCCN1CCC(N2CCC(c3cc(F)c4nc(-c5ccc(S(C)(=O)=O)cc5)n(C)c4c3)CC2)CC1 [Example 281, 4-fluoro-6-(1′-(2-methoxyethyl)-[1,4′-bipiperidin]-4-yl)-1-methyl-2-(4-(methylsulfonyl)phenyl)-1H-benzo[d]imidazole] |
| > 50000 | 290 | 290 | > 50000 | – | Cn1c(-c2ccc(S(C)(=O)=O)cc2)nc2cc(F)c(C3CCN(C4CCN(C5CCC5)CC4)CC3)cc21 [Example 223, 6-(1′-cyclobutyl-[1,4′-bipiperidin]-4-yl)-5-fluoro-1-methyl-2-(4-(methylsulfonyl)phenyl)-1H-benzo[d]imidazole] |
| > 50000 | 120 | 121 | 6600 | – | CC(C)CN1CCC(N2CCC(c3cc4nc(-c5ccc(S(C)(=O)=O)cc5)n(C)c4cc3F)CC2)CC1 [Example 240, 6-fluoro-5-(1′-isobutyl-[1,4′-bipiperidin]-4-yl)-1-methyl-2-(4-(methylsulfonyl)phenyl)-1H-benzo[d]imidazole] |
| 5700 | – | 563 | > 50000 | 560 | Cc1cc(-c2ccc(CN3CCC(N(C)C4CC4)CC3)c(F)c2)cc2c1nc(-c1ccc(S(C)(=O)=O)cc1)n2C [Example 394, N-cyclopropyl-1-(4-(1,4-dimethyl-2-(4-(methylsulfonyl)phenyl)-1H-benzo[d]imidazol-6-yl)-2-fluorobenzyl)-N-methylpiperidin-4-amine] |
| > 50000 | – | 279 | 800 | 280 | CN(C)C1CCN(Cc2ccc(-c3ccc4nc(-c5ccccc5)n(C)c4c3)cc2)CC1 [Example 374, N,N-dimethyl-1-(4-(1-methyl-2-phenyl-1H-benzo[d]imidazol-6-yl)benzyl)piperidin-4-amine] |

Continued, compound first:

| Compound | IC50 (human TLR8) [nM] | IC50 (human TLR9) [nM] | IC50 (human TLR9; [1]) [nM] | IC50 (human TLR7) [nM] | IC50 (human TLR9; [2]) [nM] |
| --- | --- | --- | --- | --- | --- |
| COc1ccc(-c2nc3c(C)cc(C4CCN(C5CC6CCC(C5)N6CC(C)C)CC4)cc3[nH]2)cc1OC (single isomer, unassigned) [Example 20, 2-(3,4-dimethoxyphenyl)-6-(1-(8-isobutyl-8-azabicyclo[3.2.1]octan-3-yl)piperidin-4-yl)-4-methyl-1H-benzo[d]imidazole] | > 50000 | – | – | 4100 | 69 |
| Cn1c(-c2ccc(S(C)(=O)=O)cc2)nc2c(F)c(C3CCN(C4CCN(C5CC5)CC4)CC3)ccc21 [Example 185, 5-(1′-cyclopropyl-[1,4′-bipiperidin]-4-yl)-4-fluoro-1-methyl-2-(4-(methylsulfonyl)phenyl)-1H-benzo[d]imidazole] | > 50000 | 700 | 697 | > 50000 | – |
| COc1ccc(-c2nc3c(C)cc(C4CCN(C5CC6CCC(C5)N6C5CCOCC5)CC4)cc3n2C)cc1OC (single isomer, unassigned) [Example 167, 2-(3,4-dimethoxyphenyl)-1,4-dimethyl-6-(1-(8-(tetrahydro-2H-pyran-4-yl)-8-azabicyclo[3.2.1]octan-3-yl)piperidin-4-yl)-1H-benzo[d]imidazole] | > 25000 | 790 | 788 | > 25000 | – |
| Cc1cc(C2CCN(C3CC4CCC(C3)N4C(C)C)CC2)cc2c1nc(-c1ccc(S(C)(=O)=O)cc1)n2C (single isomer, unassigned) [Example 85, 6-(1-(8-isopropyl-8-azabicyclo[3.2.1]octan-3-yl)piperidin-4-yl)-1,4-dimethyl-2-(4-(methylsulfonyl)phenyl)-1H-benzo[d]imidazole] | > 25000 | – | 106 | 5700 | 110 |
| Cc1cc(C2CCN(C3CCN(C(C)C)CC3)CC2)cc2c1nc(-c1ccc(S(C)(=O)=O)c(F)c1)n2C [Example 122, 2-(3-fluoro-4-(methylsulfonyl)phenyl)-6-(1′-isopropyl-[1,4′-bipiperidin]-4-yl)-1,4-dimethyl-1H-benzo[d]imidazole] | > 25000 | – | 139 | 8900 | 140 |
